Where a name gives a salt, the structure may show the parent alone. Read-outs that look alike come from different tables or passages of the source.
How the values were obtained:
serotonin 2 receptor = target: T1, serotonin 2 receptor (Rattus norvegicus, UniProt P14842); test: Serotonin 2 receptor binding experiment (3H-ketancerine); conditions: rat cortex and hippocampal tissue; 0.5 nM 3H-ketancerine; IC50 in M; read-out: -logIC50 5-HT2 (converted)
T1 construct: the cortex and hippocampal tissue were extracted from the brain; from tissue; host or cells: brain cortex and hippocampus of 7-week-old male S.D. rats, washed membrane homogenate
T1 sequence (P14842 whole entry): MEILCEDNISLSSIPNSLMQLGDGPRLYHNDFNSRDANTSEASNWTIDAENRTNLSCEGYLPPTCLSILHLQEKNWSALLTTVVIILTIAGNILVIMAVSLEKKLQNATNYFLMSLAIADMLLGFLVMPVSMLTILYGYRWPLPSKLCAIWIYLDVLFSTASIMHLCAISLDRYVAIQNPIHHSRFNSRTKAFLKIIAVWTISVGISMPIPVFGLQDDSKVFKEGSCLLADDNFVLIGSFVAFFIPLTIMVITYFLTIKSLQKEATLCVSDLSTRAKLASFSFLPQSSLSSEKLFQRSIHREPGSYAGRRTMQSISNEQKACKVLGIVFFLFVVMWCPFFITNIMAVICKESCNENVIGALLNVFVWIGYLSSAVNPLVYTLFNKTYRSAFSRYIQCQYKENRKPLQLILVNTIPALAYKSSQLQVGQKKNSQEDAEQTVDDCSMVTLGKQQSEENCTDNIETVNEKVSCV
Procedure: (§1) Affinity for intracerebral serotonin 1A and serotonin 2 receptor was checked in accordance with the method of Hall et al. (J. Neurochem., 44, 1685-1695, 1985) and the method of Leysen et al. (Mol. Pharmacol., 21, 301-314, 1982).
(§2) Stated more specifically, the cortex and hippocampal tissue were extracted from the brain of 7-wk old S.D. line male rats, mixed with 20 volumes of Tris-HCl buffer (50 mM, pH 7.7) and homogenized with a Teflon homogenizer. Thereafter, the homogenate was centrifuged at 39800×g for 20 min and the supernatant was discarded. Forty volumes of a buffer were added to the precipitate and the mixture was homogenized with a Polytron homogenizer, with the homogenate being centrifuged under the same condition as set forth above. The same procedure was repeated two more times and the final precipitate was homogenized with 40 volumes of a buffer; thereafter, the homogenate was stored at least overnight at -80° C. On the day when binding experiments were to be conducted, the homogenate was thawed at room temperature and incubated at 37° C. for 20 min to remove the endogenous serotonin.
(§3) Thereafter, centrifugation was conducted at 39800×g for 20 min and 40 volumes of a buffer were added to the precipitate, followed by homogenization. This procedure was repeated three times; to the final precipitate, a buffer was added in 65 volumes for the case of serotonin 1A receptor and in 80 volumes for the case of serotonin 2 receptor and the mixture was homogenized in preparation for the binding experiments that are described below. All procedures of experimentation except storage in a frozen state and thawing at room temperature were conducted at 4° C. or below.
A reaction solution containing 0.5 nM (final concentration) of ^3 H-ketancerine and 500 μl of brain homogenate in 1.0 ml (final volume) of a buffer was incubated at 30° C. for 30 min. Subsequent procedures were the same as in the serotonin 1A receptor binding experiment and IC50 (M) was determined accordingly. To determine the amount of specific binding, the amount of binding in the presence of excess unlabelled methysergide ([…]) was subtracted from the total amount of binding.

S.D. line male rats [1] = test: Antidepressant effect, compelled swim test (Porsolt), time over which rats remain motionless; type: in vivo, rat; parameters: Antidepressant effect / Antidepressant effect, longevity: scale not given here; conditions: for inhibition in vivo at 20 mg/kg: Rattus norvegicus, po, 0.5 h, 30 min before swim, read-out: Antidepressant effect, Efficacy
Procedure: An antidepression test was conducted in accordance with the method of Porsolt et al. (Europ. J. Pharmacol., 47, 379-391, 1978). Stated more specifically, 7-wk old S.D. line male rats were placed in a glass cylinder (18 cm^.phi. ×40 cm^H) for 15 min. The cylinder was filled with water (25° C.) to a depth of 15 cm. Thereafter, the rats were placed in a hot environment (32° C.) for 15 min before they were returned to the cage. Twenty-four hours later, the rats were compelled again to swim in the same cylinder for 5 min and the total time over which the rats remained motionless was measured. A test drug was administered perorally to each animal 30 min before it was compelled to swim for 5 min. Antidepressant agents are known to be capable of specifically reducing the time over which the rats would remain motionless (Psyehopharmaeol., 83, 1-16, 1984, and ibid., 94, 147-160, 1988). The antidepressant effect was calculated by the following formula: [formula]
(§4) The procedure of Test Examples 2 and 3 were repeated except that test compounds were administered perorally in a dose of 10 mg/kg.
(§5) The procedures of Test Example 2 and 3 were repeated, except that test compounds were administered perorally in a dose of 20 mg/kg to check the longevity of their antianxiety and antidepressant effects for 0.5, 2 and 4 h.

S.D. line male rats [2] = test: Antianxiety effect, water drinking under punishment (Vogel); type: in vivo, rat; parameters: Antianxiety effect / Antianxiety effect, longevity: unit not given here; conditions: for change in vivo at 20 mg/kg: Rattus norvegicus, po, read-out: Antianxiety effect, Efficacy; for Antianxiety and antidepressant effects: Table 6
Procedure: Antianxiety test was conducted in accordance with a method adapted from the method of Vogel et al. (Psychopharmacol., 21, 1-7, 1971). Stated more specifically, S.D. line male rats weighing 250-300 g were entirely kept from water for 24 h and then placed in a concrete experimental box. […] The bottom of the box was made of a stainless steel grid, from which electric shock (0.2 mA, 0.5 sec) could be applied to the limbs of rats. The test schedule was as follows: first, the rats were acclimatized to the experimental box and trained for drinking water; this was done for 3 min without electric shock. The quantity of water drunk by the rats was then measured (under non-punishment). Then, the rats were kept from drinking water for 24 h. Thereafter, the quantity of water drunk by each rat was measured (before administration of test compound) under such conditions that an electric shock was applied each time a rat drank one water drop (under punishment).Thirty minutes later, a test drug was administered perorally and after an additional 20 min, the quantity of water drunk by each rat was again measured under punishment (after administration of test compound). The quantity of water drunk by rats will decrease under punishment but it is known that the initial level can be restored by administering an antianxiety agent.
The antianxiety effect of a test compound was calculated by the following formula: [formula]
as §4, §5

serotonin 1A receptor = target: T2, serotonin 1A receptor (Rattus norvegicus, UniProt P19327); test: Serotonin 1A receptor binding experiment (3H-8-OH-DPAT); conditions: rat cortex and hippocampal tissue, 0.5 nM 3H-8-OH-DPAT, IC50 in M
T2 construct: the cortex and hippocampal tissue were extracted from the brain; from tissue; host or cells: brain cortex and hippocampus of 7-week-old male S.D. rats, washed membrane homogenate
T2 sequence (P19327 1-422): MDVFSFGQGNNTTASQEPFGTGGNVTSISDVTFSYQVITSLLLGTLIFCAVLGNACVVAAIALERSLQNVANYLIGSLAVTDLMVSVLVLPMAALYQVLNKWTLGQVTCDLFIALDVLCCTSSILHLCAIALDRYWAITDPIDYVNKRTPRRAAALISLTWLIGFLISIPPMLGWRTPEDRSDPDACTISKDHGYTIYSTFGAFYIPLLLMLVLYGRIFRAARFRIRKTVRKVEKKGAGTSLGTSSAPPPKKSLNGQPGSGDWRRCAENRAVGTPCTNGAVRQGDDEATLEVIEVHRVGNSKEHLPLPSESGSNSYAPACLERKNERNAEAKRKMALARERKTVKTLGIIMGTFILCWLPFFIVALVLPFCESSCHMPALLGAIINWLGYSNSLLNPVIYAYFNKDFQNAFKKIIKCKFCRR
Procedure: as §1, §2, §3
A reaction solution containing 0.5 nM (final concentration) of 3H-8-hydroxy-2-(di-n-propylamino)tetralin (8-OH-DPAT), […] and 500 μl of brain homogenate in 1.0 ml (final volume) of a buffer was incubated at 25° C. for 30 min. Thereafter, the reaction solution was filtered by rapid passage through a glass filler. The filter was washed rapidly with an ice-cooled buffer (3 ml) three times, put into a scintillation vial together with a scintillation cocktail, and left to stand overnight at 4° C. On the next day, the vial was agitated well and measurements were conducted with a scintillation counter. To determine the amount of specific binding, the amount of binding in the presence of excess unlabeled serotonin (10 μM) was subtracted from the total amount of binding. As an index for the affinity of a test compound for either receptor, the concentration at which the specific binding of ^3 H-DPAT was inhibited by 50% (IC50, M) was determined using computer software EBDA/LIGAND (Biosoft).

[3] = read-out: -logIC50 5-HT1A (converted)
[4] = peroral 20 mg/kg, 0.5 h after administration
[5] = peroral 20 mg/kg, 2.0 h after administration
[6] = peroral 20 mg/kg, 4.0 h after administration

Compound | IC50 (serotonin 2 receptor) | inhibition in vivo at 20 mg/kg (S.D. line male rats [1]; peroral 20 mg/kg) | Antidepressant effect (S.D. line male rats [1]; peroral 20 mg/kg) | change in vivo at 20 mg/kg (S.D. line male rats [2]; peroral 20 mg/kg) | Antianxiety effect (S.D. line male rats [2]; peroral 20 mg/kg) | IC50 (serotonin 1A receptor; [3]) | also measured
O=C(NCCNCC1COc2cccc(O)c2O1)C12CC3CC(CC(C3)C1)C2 (stereo not shown) [Compound 18, N-{[2-(8-hydroxy-1,4-benzodioxan-2ylmethyl)amino]ethyl}tricyclo[^3,3,1,1^3, ^7]decane-1-carboxyamide] | 50.1 nM | 78.5 ± 4.5% | better antidepressant effects than WY-50324 | 80.1 ± 6.1% | better effects than MDL-73005 | 0.158 nM | –
COc1ccc2c(c1)OC(CNCCNC(=O)C13CC4CC(CC(C4)C1)C3)CO2 (stereo not shown) [Compound 14, N-{[2-(7-methoxy-1,4-benzodioxan-2-ylmethyl)amino]ethyl}tricyclo[3,3,1,1^3, ^7]decane-1-carboxyamide] | 25.1 nM | 46.9 ± 7.1% | – | – | – | 0.398 nM | –
Cc1ccc2c(c1)OCC(CNCCNC(=O)C13CC4CC(CC(C4)C1)C3)O2 (stereo not shown) [Compound 3, N-{[2-(6-methyl-1,4-benzodioxan-2ylmethyl)amino]ethyl}tricyclo[3,3,1,1^3, ^7]decane-1-carboxyamide] | 23.4 nM | 56.8 ± 9% | almost comparable effects to WY-50324 | 63.9 ± 6.8% | comparable effects to MDL-73005 | 2.51 nM | –
O=C(NCCNCC1COc2ccc(Cl)cc2O1)C12CC3CC(CC(C3)C1)C2 (stereo not shown) [Compound 4, N-{[2-(7-chloro-1,4-benzodioxan-2ylmethyl)amino]ethyl}tricyclo[3,3,1,1^3, ^7]decane-1-carboxyamide] | 42.7 nM | 51.9 ± 8.2% | almost comparable effects to WY-50324 | 76.8 ± 13.7% | comparable effects to MDL-73005 | 5.13 nM | –
O=C(NCCNCC1COc2ccccc2O1)C12CC3CC(CC(C3)C1)C2 (stereo not shown) [Compound 2, N-{[2-(1,4-benzodioxan-2-ylmethyl)amino]ethyl}tricyclo[3,3,1,1^3, ^7]decane-1-carboxyamide] | 35.5 nM | 85 ± 8.5% | better antidepressant effects than WY-50324 | 39.3 ± 10.8% | almost comparable effects to WY-50324 | 302 nM | –
Cc1cccc2c1OC(CNCCNC(=O)C13CC4CC(CC(C4)C1)C3)CO2 (single isomer, unassigned; (-)) [Compound 7, (-)-N-{[2-(8-methyl-1,4-benzodioxan-2ylmethyl)amino]ethyl}tricyclo[3,3,1^3, ^7]decane-1carboxyamide hydrochloride] | 15.8 nM | – | – | – | – | 0.316 nM | Antidepressant effect (S.D. line male rats [1]; peroral 10 mg/kg): 62.7 ± 12.4; Antidepressant effect, longevity (S.D. line male rats [1]; [4]): 72.1; Antidepressant effect, longevity (S.D. line male rats [1]; [5]): 76.9; Antidepressant effect, longevity (S.D. line male rats [1]; [6]): 38.1; Antianxiety effect (S.D. line male rats [2]; peroral 10 mg/kg): 45.4 ± 3.4; Antianxiety and antidepressant effects (S.D. line male rats [2]; peroral 10 mg/kg): superiority; Antianxiety effect, longevity (S.D. line male rats [2]; [4]): 66.0; Antianxiety effect, longevity (S.D. line male rats [2]; [5]): 51.6; Antianxiety effect, longevity (S.D. line male rats [2]; [6]): 26.1
O=C1C2C3CCC(C3)C2C(=O)N1CCCCN1CCN(c2ncccn2)CC1 (stereo not shown) [SM-3997, reference compound] | 550 nM | -10.5 ± 10.6% | – | 48.5 ± 15.8% | – | – | IC50 (serotonin 1A receptor; -logIC50 5-HT1A): 31.6 nM
O=C(NCCNCC1COc2ccc(O)cc2O1)C12CC3CC(CC(C3)C1)C2 (stereo not shown) [Compound 17, N-{[2-(7-hydroxy-1,4-benzodioxan-2ylmethyl)amino]ethyl}tricyclo[3,3,^3, ^7]decane-1-carboxyamide] | 251 nM | – | – | 66.6 ± 8.7% | comparable effects to MDL-73005 | 0.251 nM | –
COc1cccc2c1OCC(CNCCNC(=O)C13CC4CC(CC(C4)C1)C3)O2 (stereo not shown) [Compound 6, N-{[2-(5-methoxy-1,4-benzodioxan-2-ylmethyl)amino]ethyl}tricyclo[3,3,1^3, ^7]decane-1-carboxyamide] | 75.9 nM | 82.2 ± 6.6% | better antidepressant effects than WY-50324 | 28.7 ± 9.5% | – | 4.07 nM | –
O=C(NCCNCC1COc2cc(O)ccc2O1)C12CC3CC(CC(C3)C1)C2 (stereo not shown) [Compound 16, N-{[2-(6-hydroxy-1,4-benzodioxan-2ylmethyl)amino]ethyl}tricyclo[3,3,1,1^3, ^7]decane-1-carboxyamide] | 158 nM | – | – | 46.5 ± 4.7% | almost comparable effects to WY-50324 | 2.51 nM | –
Nc1ccc2c(c1)OC(CNCCNC(=O)C13CC4CC(CC(C4)C1)C3)CO2 (stereo not shown) [Compound 12, N-{[2-(7-amino-1,4-benzodioxan-2-ylmethyl)amino]ethyl}tricyclo[3,3,1,1^3, ^7]decane-1-carboxyamide] | 200 nM | 57 ± 5.9% | almost comparable effects to WY-50324 | – | – | 0.398 nM | Antianxiety effect (S.D. line male rats [2]; peroral 10 mg/kg): 52.1 ± 2.5; Antianxiety and antidepressant effects (S.D. line male rats [2]; peroral 10 mg/kg): superiority
